Assay results reported in patent US7629320B2, “Nucleoside derivatives for treating hepatitis C virus infection” (SmithKline Beecham Corporation, priority 2002, dated 2009).

Tests used:
HCV = assay: activity of Example 26 (test not stated; patent concerns anti-hepatitis C activity); conditions: test not specified
[1] = patients treated at currently recommended doses; cited from earlier work

Row | Compound | activity (stated in words) (HCV) | patients with significant hemolysis [1]
1 | O=P(O)(O)OP(=O)(O)OP(=O)(O)OC[C@H]1O[C@@H](n2cnc3c(NO)ncnc32)[C@H](O)[C@@H]1O [Example 26, 6-Hydroxylamino-9-β-D-ribofuranosylpurine 5′-Triphosphate] | inactive | –
2 | NC(=O)c1ncn([C@@H]2O[C@H](CO)[C@@H](O)[C@H]2O)n1 [Ribavirin, 1-β-D-ribofuranosyl-1H-1,2,-4-triazole-3-carboxamide] | – | 10-20%
